Results taken from PubChem BioAssay (NCI).
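Compound exposure: 48 hours, 5 concentrations, 96-well plates. TGI denotes the concentration required for complete inhibition of growth.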

How the values were obtained:
Experiment in all cases: NCI anticancer screen, dose series, 48 h
[1] = test system: DLD-1 colon
[2] = test system: RXF-631 renal
[3] = test system: ACHN renal
[4] = test system: LOX IMVI melanoma
[5] = test system: CAKI-1 renal
[6] = test system: MALME-3M melanoma
[7] = test system: HT29 colon
[8] = test system: A549 NSCLC
[9] = test system: U251 CNS
[10] = test system: SNB-78 CNS
[11] = test system: OVCAR-8 ovarian
[12] = test system: TK-10 renal
[13] = test system: LXFL 529 NSCLC
[14] = test system: DMS 273 small cell lung
[15] = test system: IGROV1 ovarian
[16] = test system: NCI-H460 lung
[17] = test system: HOP-62 NSCLC
[18] = test system: M19-MEL melanoma
[19] = test system: SNB-19 CNS
[20] = test system: SK-MEL-5 melanoma
[21] = test system: K-562 leukemia
[22] = test system: HCT-116 colon
[23] = test system: DMS 114 small cell lung
[24] = test system: SK-MEL-2 melanoma
[25] = test system: A498 renal
[26] = test system: XF 498 CNS
[27] = test system: OVCAR-4 ovarian
[28] = test system: HCC-2998 colon
[29] = test system: UACC-62 melanoma
[30] = test system: SK-MEL-28 melanoma
[31] = test system: 786-0 renal
[32] = test system: UACC-257 melanoma
[33] = test system: SF-295 CNS
[34] = test system: RXF 393 renal
[35] = test system: SW-620 colon
[36] = test system: HCT-15 colon
[37] = test system: SF-268 CNS
[38] = test system: COLO 205 colon
[39] = test system: M14 melanoma
[40] = test system: UO-31 renal
[41] = test system: RPMI-8226 leukemia
[42] = test system: SK-OV-3 ovarian
[43] = test system: SN12C renal
[44] = test system: KM12 colon
[45] = test system: NCI-H23 lung
[46] = test system: EKVX NSCLC
[47] = test system: CCRF-CEM leukemia
[48] = test system: OVCAR-3 ovarian
[49] = test system: SNB-75 CNS
[50] = test system: SF-539 CNS
[51] = test system: MOLT-4 leukemia
[52] = test system: OVCAR-5 ovarian
[53] = test system: KM20L2 colon
[54] = test system: HL-60(TB) leukemia
[55] = test system: NCI-H522 lung
[56] = test system: HOP-92 NSCLC
[57] = test system: SR leukemia
[58] = test system: HOP-18 NSCLC
[59] = test system: NCI-H226 lung

Measured: TGI

Cc1nn(-c2ccccc2)c2nc(N3CCOCC3)nnc12
not listed: [54] | [55] | [56] | [57] | [58] | [59]
> 100 µM: all other assays above

N#CC(N)(C(=O)CCC(=O)Nc1cccc(Cl)c1)c1ccc(Cl)cc1 (configuration not stated)
not listed: [2] | [4] | [28] | [34] | [52]
> 100 µM: all other assays above
